The values that follow come from patent publication US20230234920A1, “Azirine Containing Compounds as Anti-Angiogenesis Agents and a Process for the Preparation Thereof” (COUNCIL OF SCIENTIFIC & INDUSTRIAL RESEARCH, priority 2020, published 2023).

The experiment has as its system Balb/c mice. The experiment in a line: Matrigel plug assay. It is filed as in vivo. The method, then:
(A) Post 7 days treatment of control (0.1% DMSO), sunitinib and Compound 1 at a given concentration, the mice was sacrificed and representative Matrigel plugs were excised and photographed. (B) Hemoglobin estimation was performed using drapkin's reagent and graph was plotted with data that are represented as mean±SEM from three independent experiments with significant difference from control at *p<0.05 using t-test analysis.
Compound 1 ability to modulate neovascularization was evaluated by matrigel plug assay, using mouse-VEGF and bFGF (R&D systems, Minneapolis) as stimulus. 300 μL of matrigel (Corning Inc., Corning, N.Y., USA) were allowed to liquefy at 4° C., supplemented with either VEGF […], bFGF […] and heparin (10 mg/mL) as a control or with sunitinib […] as a positive control. All groups and test groups having similar condition along with Compound 1 (750 nM) were carefully mixed with pre-chilled pipette tips to prevent aeration and gelatinization. […] Matrigel plugs were excised after photographs were taken and angiogenic response was evaluated by spectrophotometric measurement of hemoglobin content using the Drabkin's method according to the manufacturer's protocol (Cat no. D5941-6VL; Sigma, St. Louis, Mo.). Absorbance was measured at 540 nm and hemoglobin concentration was calculated.

For the molecule `CCOC(=O)C1N=C1CCc1ccc(OC)cc1` (racemic) [Compound 1, Ethyl 3-(4-methoxyphenethyl)-2H-azirine-2-carboxylate], the “blood vessels formation through implanted Matrigel” value (750 nM) is “significant reduction in blood vessels formation”. In addition, the hemoglobin concentration (750 nM in Matrigel) lay in the range of 10 to 15 µg/mL.
